Molecular target: T1, hNKCC1 (NT17, 3xFlag-YFP-tagged human NKCC1) (Homo sapiens, UniProt P55011)
T1 construct: gene SLC12A2; full-length human NKCC1 from synthetic cDNA with 262 silent mutations; N-terminal 3xFlag and YFP (mVenus) tags kept; pcDNA3.1-neo, stably expressed in HEK-293 cells
T1 sequence (P55011 1-1212): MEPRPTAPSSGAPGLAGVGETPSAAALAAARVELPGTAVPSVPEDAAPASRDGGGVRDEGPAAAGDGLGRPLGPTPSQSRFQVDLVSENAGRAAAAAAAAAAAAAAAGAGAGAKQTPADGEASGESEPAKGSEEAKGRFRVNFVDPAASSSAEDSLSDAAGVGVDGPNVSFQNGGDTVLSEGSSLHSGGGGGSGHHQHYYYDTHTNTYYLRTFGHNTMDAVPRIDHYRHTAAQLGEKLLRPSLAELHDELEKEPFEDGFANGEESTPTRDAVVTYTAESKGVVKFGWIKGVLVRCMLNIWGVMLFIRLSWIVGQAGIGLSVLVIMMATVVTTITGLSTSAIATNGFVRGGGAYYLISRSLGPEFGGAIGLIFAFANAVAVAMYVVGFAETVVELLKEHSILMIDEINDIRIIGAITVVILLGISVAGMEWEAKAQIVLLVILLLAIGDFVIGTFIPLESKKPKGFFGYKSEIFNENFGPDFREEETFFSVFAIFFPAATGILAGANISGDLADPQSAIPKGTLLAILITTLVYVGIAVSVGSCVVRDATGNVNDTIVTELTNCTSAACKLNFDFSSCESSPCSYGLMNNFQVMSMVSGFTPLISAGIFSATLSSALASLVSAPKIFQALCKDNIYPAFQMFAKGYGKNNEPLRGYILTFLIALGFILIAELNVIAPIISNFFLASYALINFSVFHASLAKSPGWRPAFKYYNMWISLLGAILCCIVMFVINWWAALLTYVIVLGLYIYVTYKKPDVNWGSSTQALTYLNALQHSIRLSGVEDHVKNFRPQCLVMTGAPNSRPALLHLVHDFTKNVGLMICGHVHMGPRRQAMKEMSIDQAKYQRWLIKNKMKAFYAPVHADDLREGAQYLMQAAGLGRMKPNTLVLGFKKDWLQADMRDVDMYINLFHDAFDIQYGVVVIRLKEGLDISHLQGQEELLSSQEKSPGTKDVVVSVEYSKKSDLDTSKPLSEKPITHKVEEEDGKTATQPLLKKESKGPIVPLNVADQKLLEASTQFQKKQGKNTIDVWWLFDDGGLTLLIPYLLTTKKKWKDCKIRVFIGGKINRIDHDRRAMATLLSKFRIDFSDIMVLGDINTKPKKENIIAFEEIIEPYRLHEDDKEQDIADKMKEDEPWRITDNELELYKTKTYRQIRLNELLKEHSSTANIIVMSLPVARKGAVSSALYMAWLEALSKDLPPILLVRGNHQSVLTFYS
Assay: influx inhibition in transfected HEK-293 cells, single-site fit
Assay type: cell-based
Settings: read-out: Ki (bumet)

Structure (SMILES): CCCCNc1cc(C(=O)O)cc(S(N)(=O)=O)c1Oc1ccccc1 [bumetanide]
- Ki: 460 ± 100 nM

From PMC3855340, “Functional Expression of Human NKCC1 from a Synthetic Cassette-Based cDNA: Introduction of Extracellular Epitope Tags and Removal of Cysteines” (PLoS ONE, 2013)
